Source: patent publication US7049314B2, “Cyclopentyl indole derivatives” (Bristol-Myers Squibb Company, priority 2002, dated 2006)
Like-named read-outs stand apart in the source and are kept apart here.

Tests used:
[1] = target: T1, human serotonin transporters (Homo sapiens, UniProt P31645); experiment: Serotonin Transporter Binding Assay ([3H]-citalopram displacement, HEK-hSERT cell membranes)
T1 construct: expressed in transfected cells
Method: HEK-293 cells that stably express human serotonin transporters (HEK-hSERT cells) were grown at 37° C. in 5% CO2 as a monolayer in medium consisting of EMEM supplemented with 10% fetal bovine serum and G418 sulfate (500 μg/mL). To prepare membranes for radioligand binding experiments, cells were rinsed twice with phosphate-buffered saline (138 mM NaCl, 4.1 mM KCl, 5.1 mM Na2PO4, 1.5 mM […], 11.1 mM glucose, pH 7.4). Cells were transferred from plates to polypropylene tubes (16×100 mm), centrifuged at 1,200×g for 5 min and were frozen at −80° C. until assay. Following centrifugation, pellets were resuspended by homogenization in buffer consisting of 50 mM Tris (pH 7.7 at 25° C.), 120 mM NaCl and 5 mM KCl and then centrifuged at 32,000×g for 10 min. Following centrifugation, supernatants were discarded and pellets were resuspended in buffer consisting of 50 mM Tris (pH 7.4 at 25° C.), 150 mM NaCl and 5 mM KCl. Membrane homogenates (200 μl/plate) were incubated with 1 nM [^3H]-citalopram (specific activity=85 Ci/mMol) and increasing concentrations of test compounds for 1 hr at 25° C. in a total volume of 250 μl. The assay buffer consisted of 50 mM Tris (pH 7.4 at 25° C.), 120 mM NaCl and 5 mM KCl (pH 7.4 with conc. HCl). Plates were incubated for 1 hr at 25° C., then filtered through 0.5% PEI treated Whatman GF/B filters using a Brandel cell harvester. Filters were washed three times with 3 mL of ice-cold tris wash buffer. Non-specific binding was defined with 10 μM fluoxetine. Amount of radioligand bound in the presence and absence of competitor was analyzed by plotting (−)log drug concentration versus the amount of radioligand specifically bound. The midpoint of the displacement curve (IC50, nM), signifies the potency. Ki values were calculated using the method of Cheng and Prusoff (1973).

[2] = target: T2, human norepinephrine transporters (Homo sapiens, UniProt P23975); experiment: Norepinephrine Transporter Binding Assay ([3H]-nisoxetine displacement, hNET cell membranes); conditions: 2.7 nM [3H]-nisoxetine, 1 hr at 4° C., read-out: NE Reuptake (binding Ki)
T2 construct: host or cells: MDCK cells (also 'HEK-hNET cells'), membrane homogenates
T2 sequence (P23975 whole entry): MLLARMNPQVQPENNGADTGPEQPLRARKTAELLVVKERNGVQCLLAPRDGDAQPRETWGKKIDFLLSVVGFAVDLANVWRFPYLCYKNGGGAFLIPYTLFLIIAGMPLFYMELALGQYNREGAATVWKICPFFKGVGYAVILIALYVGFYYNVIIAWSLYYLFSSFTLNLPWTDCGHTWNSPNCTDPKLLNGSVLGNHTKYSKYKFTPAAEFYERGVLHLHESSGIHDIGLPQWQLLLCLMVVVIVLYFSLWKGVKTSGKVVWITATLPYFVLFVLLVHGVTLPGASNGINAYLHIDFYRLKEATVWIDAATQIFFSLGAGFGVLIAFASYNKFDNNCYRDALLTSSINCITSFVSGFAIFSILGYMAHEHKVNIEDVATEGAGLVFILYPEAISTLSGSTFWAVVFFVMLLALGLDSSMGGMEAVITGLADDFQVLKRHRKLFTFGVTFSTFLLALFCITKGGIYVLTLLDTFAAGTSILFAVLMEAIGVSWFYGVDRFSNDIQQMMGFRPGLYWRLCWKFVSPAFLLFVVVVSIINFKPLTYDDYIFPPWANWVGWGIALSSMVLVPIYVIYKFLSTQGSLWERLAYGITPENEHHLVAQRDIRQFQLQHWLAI
Method: MDCK cells that stably express human norepinephrine transporters (HEK-hNET cells) were supplied by Receptor Biology, Inc. Pellets were resuspended by homogenization in buffer consisting of 50 mM Tris (pH 7.4 at 25° C.), 120 mM NaCl and 5 mM KCl. Membrane homogenates (200 μl/well, 8 ug protein) were incubated with 2.7 nM [^3H]-nisoxetine (specific activity=80 Ci/mMol) and increasing concentrations of test compounds for 1 hr at 4° C. in a total volume of 250 μl. The assay buffer consisted of 50 mM Tris (pH 7.4 at 25° C.), 120 mM NaCl and 5 mM KCl (pH 7.4 with conc. HCl). Plates were incubated for 1 hr at 4° C., then filtered through 0.5% PEI treated Whatman GF/B filters using a Brandel cell harvester. Filters were washed three times with 3 mL of ice-cold tris wash buffer. Non-specific binding was defined with 10 μM desipramine. Amount of radioligand bound in the presence and absence of competitor was analyzed by plotting (−)log drug concentration versus the amount of radioligand specifically bound. The midpoint of the displacement curve (IC50, nM), signifies the potency. Ki values were calculated using the method of Cheng and Prusoff (1973).

[3] = HEK-hSERT membranes, 1 nM [3H]-citalopram, 1 hr at 25° C., read-out: SERT (binding Ki)

T1 sequence (P31645 whole entry): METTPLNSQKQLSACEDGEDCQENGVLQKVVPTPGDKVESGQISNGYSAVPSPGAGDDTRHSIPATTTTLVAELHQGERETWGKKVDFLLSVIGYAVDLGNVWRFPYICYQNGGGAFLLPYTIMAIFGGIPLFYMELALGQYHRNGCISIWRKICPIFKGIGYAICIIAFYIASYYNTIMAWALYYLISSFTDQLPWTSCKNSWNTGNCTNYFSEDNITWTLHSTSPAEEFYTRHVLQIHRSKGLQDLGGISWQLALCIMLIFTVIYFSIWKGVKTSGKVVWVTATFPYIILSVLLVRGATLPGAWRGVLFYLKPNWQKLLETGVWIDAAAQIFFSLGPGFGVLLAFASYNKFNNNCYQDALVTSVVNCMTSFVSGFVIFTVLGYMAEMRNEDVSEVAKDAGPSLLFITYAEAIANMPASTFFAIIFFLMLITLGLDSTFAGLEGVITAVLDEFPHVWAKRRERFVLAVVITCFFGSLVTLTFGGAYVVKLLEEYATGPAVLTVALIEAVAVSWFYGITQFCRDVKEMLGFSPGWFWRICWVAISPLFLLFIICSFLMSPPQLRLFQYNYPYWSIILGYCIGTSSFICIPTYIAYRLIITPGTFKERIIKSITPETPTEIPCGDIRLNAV

| Ki [1, 3] [nM] | Compound | Ki [2] [nM] | Ki [1] [nM] |
| --- | --- | --- | --- |
| < 1 | Cn1cc(C2CCC(N3CCCCC3)C2)c2cc(C#N)ccc21 (stereo not drawn) [Compound 25, 1-Methyl-3-(3-piperidin-1-yl-cyclopentyl)-1H-indole-5-carbonitrile] | > 1000 |  |
| < 1 | Cn1cc(C2CCC(N3CCOCC3)C2)c2cc(C#N)ccc21 (stereo not drawn) [Compound 26, 1-Methyl-3-(3-morpholin-4-yl-cyclopentyl)-1H-indole-5-carbonitrile] | > 1000 |  |
| < 1 | CN(Cc1ccccc1)C1CCC(c2cn(C)c3ccc(C#N)cc23)C1 (stereo not drawn) [Compound 27, 3-[3-(Benzyl-methyl-amino)-cyclopentyl]-1-methyl-1H-indole-5-carbonitrile] | > 1000 |  |
| 1 to 10 | CN(CCc1ccccc1)C1CCC(c2cn(C)c3ccc(C#N)cc23)C1 (stereo not drawn) [Compound 28, 1-Methyl-3-[3-(methyl-phenethyl-amino)-cyclopentyl]-1H-indole-5-carbonitrile] | 100 to 1000 |  |
|  | CCCNC1CCC(c2cn(C)c3ccc(C#N)cc23)C1 (stereo not drawn) [Compound 29, 1-Methyl-3-(3-propylamino-cyclopentyl)-1H-indole-5-carbonitrile] | > 1000 | < 1 |
| < 1 | CCCN(CCC)C1CCC(c2cn(C)c3ccc(C#N)cc23)C1 (stereo not drawn) [Compound 30, 3-(3-Dipropylamino-cyclopentyl)-1-methyl-1H-indole-5-carbonitrile] | > 1000 |  |
| 1 to 10 | CCn1cc(C2CCC(N(C)Cc3ccccc3)C2)c2cc(C#N)ccc21 (stereo not drawn) [Compound 31, 3-[3-(Benzyl-methyl-amino)-cyclopentyl]-1-ethyl-1H-indole-5-carbonitrile] | > 1000 |  |
| < 1 | CCn1cc(C2CCC(N(C)C)C2)c2cc(C#N)ccc21 (stereo not drawn) [Compound 32, 3-(3-Dimethylamino-cyclopentyl)-1-ethyl-1H-indole-5-carbonitrile] | > 1000 |  |
|  | CCN(C)C1CCC(c2c[nH]c3ccc(F)cc23)C1 (stereo not drawn) [Compound 34, Ethyl-[3-(5-fluoro-1H-indol-3-yl)cyclopentyl]-methyl-amine] | > 1000 | 1 to 10 |
|  | CCN(CC)C1CCC(c2c[nH]c3ccc(F)cc23)C1 (stereo not drawn) [Compound 35, Diethyl-[3-(5-fluoro-1H-indol-3-yl)-cyclopentyl]-amine] | > 1000 | 5 |
|  | Fc1ccc2[nH]cc(C3CCC(N4CCCC4)C3)c2c1 (stereo not drawn) [Compound 36] | > 1000 | 1 to 10 |
| < 1 | CCn1cc([C@H]2CC[C@@H](N(C)C)C2)c2cc(C#N)ccc21 [Compound 56, (1S,3R)-3-(3-Dimethylamino-cyclopentyl)-1-ethyl-1H-indole-5-carbonitrile] | > 1000 |  |
| 1 to 10 | CCn1cc([C@H]2CC[C@H](N(C)C)C2)c2cc(C#N)ccc21 [Compound 57, (1S,3S)-3-(3-Dimethylamino-cyclopentyl)-1-ethyl-1H-indole-5-carbonitrile] | > 1000 |  |
| < 1 | CCn1cc([C@@H]2CC[C@H](N(C)C)C2)c2cc(C#N)ccc21 [Compound 58, (1R,3S)-3-(3-Dimethylamino-cyclopentyl)-1-ethyl-1H-indole-5-carbonitrile] | > 1000 |  |
| 1 to 10 | CCn1cc([C@@H]2CC[C@@H](N(C)C)C2)c2cc(C#N)ccc21 [Compound 59, (1R,3R)-3-(3-Dimethylamino-cyclopentyl)-1-ethyl-1H-indole-5-carbonitrile] | > 1000 |  |

| Compound | Ki [1, 3] [nM] | Ki [2] [nM] | Ki [1] [nM] |
| --- | --- | --- | --- |
| CN(C)C1CCC(c2c[nH]c3ccc(F)cc23)C1 (stereo not drawn) [Compound 33] | < 1 | > 1000 |  |
| CN(C)[C@@H]1CC[C@H](c2c[nH]c3ccc(C#N)cc23)C1 [Compound 48, (1S,3R)-3-(3-dimethylaminocyclopentyl)-1H-indole-5-carbonitrile] | < 1 | > 1000 |  |
| CN(C)[C@H]1CC[C@H](c2c[nH]c3ccc(C#N)cc23)C1 [Compound 49, (1S,3S)-3-(3-dimethylaminocyclopentyl)-1H-indole-5-carbonitrile] | < 1 | > 1000 |  |
| CN(C)[C@H]1CC[C@@H](c2c[nH]c3ccc(C#N)cc23)C1 [Compound 50, (1R,3S)-3-(3-dimethylaminocyclopentyl)-1H-indole-5-carbonitrile] | < 1 | > 1000 |  |
| CN(C)[C@@H]1CC[C@@H](c2c[nH]c3ccc(C#N)cc23)C1 [Compound 51, (1R,3R)-3-(3-dimethylaminocyclopentyl)-1H-indole-5-carbonitrile] | < 1 | > 1000 |  |
| CN(C)[C@H]1CC[C@H](c2c[nH]c3ccc(F)cc23)C1 [Compound 52, (1S,3S)-3-(5-fluoro-1H-indol-3-yl)-cyclopentyl-dimethylamine] | 1 to 10 | > 1000 |  |
| CN(C)[C@@H]1CC[C@H](c2c[nH]c3ccc(F)cc23)C1 [Compound 53, (1R,3S)-3-(5-fluoro-1H-indol-3-yl)-cyclopentyl-dimethylamine] | < 1 | > 1000 |  |
| CN(C)[C@@H]1CC[C@@H](c2c[nH]c3ccc(F)cc23)C1 [Compound 54, (1R,3R)-3-(5-fluoro-1H-indol-3-yl)-cyclopentyl-dimethylamine] | 1 to 10 | > 1000 |  |
| CN(C)[C@H]1CC[C@@H](c2c[nH]c3ccc(F)cc23)C1 [Compound 55, (1S,3R)-3-(5-fluoro-1H-indol-3-yl)-cyclopentyl-dimethylamine] | 1 to 10 | > 1000 |  |
